Assay results from patent US20230220021A1, “CYCLIC PEPTIDE INHIBITORS OF PSD-95 AND USES THEREOF” (University of Copenhagen, priority 2020, published 2023).

These compounds were tested against T1, PSD-95-PDZ2 (Homo sapiens, UniProt P78352) (assay: Fluorescence polarization (FP) competition assay against cyclic nNOS TAMRA probe). Conditions: FP competition, cyclic nNOS TAMRA probe; mean of triplicates; N.B. = not binding; read-out: Ki.
T1 construct: 7xHis (N); made in house; host or cells: Escherichia coli B21 pLys (for the mutants, 'as previously described')
Format: binding

T1 sequence (P78352 160-246 limits assumed): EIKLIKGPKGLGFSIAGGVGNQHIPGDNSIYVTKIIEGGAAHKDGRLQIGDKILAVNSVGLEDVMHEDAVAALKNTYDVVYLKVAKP

Question: With CC[C@H](C)[C@@H]1NC(=O)[C@H]([C@@H](C)O)NC(=O)[C@H](CCCCN)N(C)C(=O)[C@@H]2CCCN2C(=O)[C@H]([C@@H](C)O)NC(=O)CNC(=O)[C@H](CC(=O)O)NC(=O)CNC(=O)[C@H]([C@@H](C)O)NC(=O)[C@H](Cc2ccccc2)NC(=O)[C@H]([C@@H](C)O)NC(=O)[C@H]([C@@H](C)O)NC(=O)[C@H](CCC(=O)O)NC(=O)[C@H](CC(C)C)NC(=O)[C@H](Cc2c[nH]cn2)NC(=O)[C@H]([C@@H](C)O)NC(=O)[C@H](CCC(N)=O)NC(=O)CNC(=O)[C@H]2CCCN2C(=O)[C@H](CCC(N)=O)NC(=O)[C@H]([C@@H](C)O)NC(=O)[C@H](C(C)C)NC(=O)[C@H](CCCNC(=N)N)NC1=O [compound 96] as the compound, how does the Ki read?
Answer: 0.48 µM

Question: Which Ki does the source give for CC[C@H](C)[C@@H]1NC(=O)[C@H]([C@@H](C)O)NC(=O)[C@H](CCCCN)NC(=O)[C@@H]2CCCN2C(=O)[C@H]([C@@H](C)O)NC(=O)CNC(=O)[C@H](CC(=O)O)NC(=O)CNC(=O)[C@H]([C@@H](C)O)NC(=O)[C@H](Cc2ccccc2)NC(=O)[C@H]([C@@H](C)O)NC(=O)[C@H]([C@@H](C)O)NC(=O)[C@H](CCC(=O)O)NC(=O)[C@H](CC(C)C)NC(=O)[C@H](Cc2c[nH]cn2)NC(=O)[C@H]([C@@H](C)O)NC(=O)[C@H](CCC(N)=O)NC(=O)CNC(=O)[C@H]2CCCN2C(=O)[C@H](CCC(N)=O)N(C)C(=O)[C@H]([C@@H](C)O)NC(=O)[C@H](C(C)C)NC(=O)[C@H](CCCNC(=N)N)NC1=O [compound 102] here?
Answer: 2.2 µM

Question: CC[C@H](C)[C@@H]1NC(=O)[C@H]([C@@H](C)O)NC(=O)[C@H](CCCCN)NC(=O)[C@@H]2CCCN2C(=O)[C@H]([C@@H](C)O)NC(=O)CNC(=O)[C@H](CC(=O)O)NC(=O)CNC(=O)[C@H]([C@@H](C)O)NC(=O)[C@H](Cc2ccccc2)NC(=O)[C@H]([C@@H](C)O)NC(=O)[C@H]([C@@H](C)O)NC(=O)[C@H](CCC(=O)O)NC(=O)[C@H](CC(C)C)NC(=O)[C@H](Cc2c[nH]cn2)NC(=O)[C@@H]([C@H](C)O)NC(=O)[C@H](CCC(N)=O)NC(=O)CNC(=O)[C@H]2CCCN2C(=O)[C@H](CCC(N)=O)NC(=O)[C@H]([C@@H](C)O)NC(=O)[C@H](C(C)C)NC(=O)[C@H](CCCNC(=N)N)NC1=O [compound 112] was tested. Which Ki did it give?
Answer: 14.6 µM

Question: CC[C@H](C)[C@@H]1NC(=O)[C@H]([C@@H](C)O)NC(=O)[C@H](CCCCN)NC(=O)[C@@H]2CCCN2C(=O)[C@H]([C@@H](C)O)NC(=O)CNC(=O)[C@H](CC(=O)O)NC(=O)CNC(=O)[C@H]([C@@H](C)O)NC(=O)[C@H](Cc2ccccc2)NC(=O)[C@H]([C@@H](C)O)NC(=O)[C@H]([C@@H](C)O)NC(=O)[C@H](CCC(=O)O)NC(=O)[C@H](CC(C)C)NC(=O)[C@@H](Cc2c[nH]cn2)NC(=O)[C@H]([C@@H](C)O)NC(=O)[C@H](CCC(N)=O)NC(=O)CNC(=O)[C@H]2CCCN2C(=O)[C@H](CCC(N)=O)NC(=O)[C@H]([C@@H](C)O)NC(=O)[C@H](C(C)C)NC(=O)[C@H](CCCNC(=N)N)NC1=O [compound 113] was tested. Which Ki did it give?
Answer: 13.1 µM

Question: For CC[C@H](C)[C@@H]1NC(=O)[C@H]([C@@H](C)O)NC(=O)[C@H](CCCCN)NC(=O)[C@@H]2CCCN2C(=O)[C@H]([C@@H](C)O)NC(=O)CNC(=O)[C@@H](CC(=O)O)NC(=O)CNC(=O)[C@H]([C@@H](C)O)NC(=O)[C@H](Cc2ccccc2)NC(=O)[C@H]([C@@H](C)O)NC(=O)[C@H]([C@@H](C)O)NC(=O)[C@H](CCC(=O)O)NC(=O)[C@H](CC(C)C)NC(=O)[C@H](Cc2c[nH]cn2)NC(=O)[C@H]([C@@H](C)O)NC(=O)[C@H](CCC(N)=O)NC(=O)CNC(=O)[C@H]2CCCN2C(=O)[C@H](CCC(N)=O)NC(=O)[C@H]([C@@H](C)O)NC(=O)[C@H](C(C)C)NC(=O)[C@H](CCCNC(=N)N)NC1=O [compound 120], which Ki is on record?
Answer: 0.59 µM

Question: CC[C@H](C)[C@@H]1NC(=O)[C@H]([C@@H](C)O)NC(=O)[C@H](CCCCN)NC(=O)[C@@H]2CCCN2C(=O)[C@@H]([C@H](C)O)NC(=O)CNC(=O)[C@H](CC(=O)O)NC(=O)CNC(=O)[C@H]([C@@H](C)O)NC(=O)[C@H](Cc2ccccc2)NC(=O)[C@H]([C@@H](C)O)NC(=O)[C@H]([C@@H](C)O)NC(=O)[C@H](CCC(=O)O)NC(=O)[C@H](CC(C)C)NC(=O)[C@H](Cc2c[nH]cn2)NC(=O)[C@H]([C@@H](C)O)NC(=O)[C@H](CCC(N)=O)NC(=O)CNC(=O)[C@H]2CCCN2C(=O)[C@H](CCC(N)=O)NC(=O)[C@H]([C@@H](C)O)NC(=O)[C@H](C(C)C)NC(=O)[C@H](CCCNC(=N)N)NC1=O [compound 121] was tested. Which Ki did it give?
Answer: 2 µM

Question: Which Ki does the source give for CC[C@H](C)[C@@H]1NC(=O)[C@H]([C@@H](C)O)NC(=O)[C@H](CCCCN)NC(=O)[C@H]2CCCN2C(=O)[C@H]([C@@H](C)O)NC(=O)CNC(=O)[C@H](CC(=O)O)NC(=O)CNC(=O)[C@H]([C@@H](C)O)NC(=O)[C@H](Cc2ccccc2)NC(=O)[C@H]([C@@H](C)O)NC(=O)[C@H]([C@@H](C)O)NC(=O)[C@H](CCC(=O)O)NC(=O)[C@H](CC(C)C)NC(=O)[C@H](Cc2c[nH]cn2)NC(=O)[C@H]([C@@H](C)O)NC(=O)[C@H](CCC(N)=O)NC(=O)CNC(=O)[C@H]2CCCN2C(=O)[C@H](CCC(N)=O)NC(=O)[C@H]([C@@H](C)O)NC(=O)[C@H](C(C)C)NC(=O)[C@H](CCCNC(=N)N)NC1=O [compound 122] here?
Answer: 6.7 µM

Question: CC[C@H](C)[C@@H]1NC(=O)[C@H]([C@@H](C)O)NC(=O)[C@@H](CCCCN)NC(=O)[C@@H]2CCCN2C(=O)[C@H]([C@@H](C)O)NC(=O)CNC(=O)[C@H](CC(=O)O)NC(=O)CNC(=O)[C@H]([C@@H](C)O)NC(=O)[C@H](Cc2ccccc2)NC(=O)[C@H]([C@@H](C)O)NC(=O)[C@H]([C@@H](C)O)NC(=O)[C@H](CCC(=O)O)NC(=O)[C@H](CC(C)C)NC(=O)[C@H](Cc2c[nH]cn2)NC(=O)[C@H]([C@@H](C)O)NC(=O)[C@H](CCC(N)=O)NC(=O)CNC(=O)[C@H]2CCCN2C(=O)[C@H](CCC(N)=O)NC(=O)[C@H]([C@@H](C)O)NC(=O)[C@H](C(C)C)NC(=O)[C@H](CCCNC(=N)N)NC1=O [compound 123] was tested. Which Ki did it give?
Answer: 23.2 µM

Question: CC[C@H](C)[C@@H]1NC(=O)[C@H]([C@@H](C)O)NC(=O)[C@H](CCCCN)NC(=O)[C@@H]2CCCN2C(=O)[C@H]([C@@H](C)O)NC(=O)CNC(=O)[C@H](CC(=O)O)NC(=O)CNC(=O)[C@H]([C@@H](C)O)NC(=O)[C@H](Cc2ccccc2)NC(=O)[C@H]([C@@H](C)O)NC(=O)[C@H]([C@@H](C)O)NC(=O)[C@H](CCC(=O)O)NC(=O)[C@H](CC(C)C)NC(=O)[C@H](Cc2c[nH]cn2)NC(=O)[C@H]([C@@H](C)O)NC(=O)[C@H](CCC(N)=O)NC(=O)CNC(=O)[C@H]2CCCN2C(=O)[C@H](CCC(N)=O)NC(=O)[C@H]([C@@H](C)O)NC(=O)[C@H](C(C)C)NC(=O)[C@@H](CCCNC(=N)N)NC1=O [compound 126] was tested. Which Ki did it give?
Answer: 9 µM

Question: With CC[C@H](C)[C@@H]1NC(=O)[C@H]([C@@H](C)O)NC(=O)[C@H](CCCCN)NC(=O)[C@@H]2CCCN2C(=O)[C@H]([C@@H](C)O)NC(=O)CNC(=O)[C@H](CC(=O)O)NC(=O)CNC(=O)[C@H]([C@@H](C)O)NC(=O)[C@H](Cc2ccccc2)NC(=O)[C@H]([C@@H](C)O)NC(=O)[C@H]([C@@H](C)O)NC(=O)[C@H](CCC(=O)O)NC(=O)[C@H](CC(C)C)NC(=O)[C@H](Cc2c[nH]cn2)NC(=O)[C@H]([C@@H](C)O)NC(=O)[C@H](CCC(N)=O)NC(=O)CNC(=O)[C@H]2CCCN2C(=O)[C@H](CCC(N)=O)NC(=O)[C@@H]([C@H](C)O)NC(=O)[C@H](C(C)C)NC(=O)[C@H](CCCNC(=N)N)NC1=O [compound 128] as the compound, how does the Ki read?
Answer: 1.83 µM
